Assay results as given in paper PMC12669672, “Structural insights into selective and dual antagonism of EP2 and EP4 prostaglandin receptors” (The EMBO Journal, 2025).
Where “and” joins values, the source holds several entries; their conditions need not be identical. Identical values can stand only once. Entries after “also recorded” stand apart in the source; their conditions may differ. Like-named read-outs stand apart in the source and are kept apart here.

Tests used:
Type in all cases: cell-based
[1] = molecular target: T1, constitutively active EP4 S319A (Homo sapiens, UniProt P35408, S319A); experiment: GloSensor cAMP assay, inhibition of constitutive activity
T1 construct: The full-length EP2 or EP4 was cloned into the pcDNA3.1 vector (Invitrogen), incorporating an N-terminal FLAG tag; expressed in transfected cells; host or cells: AD293
T1 sequence (P35408 whole entry S319A): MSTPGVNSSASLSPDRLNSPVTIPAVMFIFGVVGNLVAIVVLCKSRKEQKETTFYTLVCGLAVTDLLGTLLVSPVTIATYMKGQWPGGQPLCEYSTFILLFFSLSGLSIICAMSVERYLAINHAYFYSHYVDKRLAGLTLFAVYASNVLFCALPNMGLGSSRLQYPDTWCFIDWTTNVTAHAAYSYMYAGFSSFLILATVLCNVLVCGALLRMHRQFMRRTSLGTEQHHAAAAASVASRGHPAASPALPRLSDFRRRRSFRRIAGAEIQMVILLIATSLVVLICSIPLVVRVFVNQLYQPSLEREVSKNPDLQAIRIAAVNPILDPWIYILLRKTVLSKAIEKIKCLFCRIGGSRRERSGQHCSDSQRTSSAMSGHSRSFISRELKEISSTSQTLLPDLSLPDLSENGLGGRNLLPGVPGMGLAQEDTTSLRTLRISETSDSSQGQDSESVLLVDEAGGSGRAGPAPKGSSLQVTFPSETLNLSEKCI
Method: (§1) The full-length EP2 or EP4 was cloned into the pcDNA3.1 vector (Invitrogen), incorporating an N-terminal FLAG tag. AD293 cells were seeded in six-well plates containing DMEM supplemented with 10% dialyzed FBS 1 day prior to transfection. Following overnight growth, cells were transfected with a 1:1 ratio of receptor construct and GloSensor22F cAMP biosensor (Promega) plasmids.
(§2) Twenty-four hours post-transfection, the cells were transferred to CO2-independent media containing 2% GloSensor cAMP Reagent (Promega) and distributed into 384-well assay plates at a density of 4000 cells per well in 10 μL. […] The plates were then incubated at 37 °C for an additional hour before luminescence measurements were taken using an EnVision plate reader.
(§3) Data analysis was performed using GraphPad Prism software v8.0.1. A nonlinear regression analysis, employing a sigmoidal dose–response model, was conducted to determine the Emax values and half-maximum inhibitory concentrations (IC50) for each compound tested.

[2] = molecular target: T2, constitutively active EP4 V320A (Homo sapiens, UniProt P35408, V320A); experiment: as above
T2 construct: The full-length EP2 or EP4 was cloned into the pcDNA3.1 vector (Invitrogen), incorporating an N-terminal FLAG tag; expressed in transfected cells; host or cells: AD293
T2 sequence (P35408 whole entry V320A): as the sequence (P35408 whole entry S319A) above, with A319S, V320A counted along it
Method: as §1, §2, §3

[3] = molecular target: T3, constitutively active EP4 V72A (Homo sapiens, UniProt P35408, V72A); experiment: as above
T3 construct: The full-length EP2 or EP4 was cloned into the pcDNA3.1 vector (Invitrogen), incorporating an N-terminal FLAG tag; expressed in transfected cells; host or cells: AD293
T3 sequence (P35408 whole entry V72A): as the sequence (P35408 whole entry S319A) above, with V72A, A319S counted along it
Method: as §1, §2, §3

EP2 WT = EP2 WT (Homo sapiens, UniProt P43116); experiment: GloSensor cAMP assay, antagonism of PGE2-induced cAMP; parameters: The full-length EP2 or EP4 was cloned into the pcDNA3.1 vector; FLAG (N); expressed in transfected cells; host or cells: AD293 cells
EP2 WT, sequence (P43116 whole entry): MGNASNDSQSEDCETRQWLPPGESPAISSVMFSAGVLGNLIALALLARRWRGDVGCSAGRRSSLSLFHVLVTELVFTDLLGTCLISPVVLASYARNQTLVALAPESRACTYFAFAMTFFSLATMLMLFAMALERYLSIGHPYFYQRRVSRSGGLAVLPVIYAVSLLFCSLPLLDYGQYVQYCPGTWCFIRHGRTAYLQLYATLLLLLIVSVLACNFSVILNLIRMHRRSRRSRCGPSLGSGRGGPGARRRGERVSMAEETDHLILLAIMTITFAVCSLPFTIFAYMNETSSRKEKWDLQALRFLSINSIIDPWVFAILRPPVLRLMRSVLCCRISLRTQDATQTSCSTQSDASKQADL
Method: as §1, §2, §3

[4] = no PGE2, pIC50 mutant - pIC50 WT, mean

CCc1nnc(NS(=O)(=O)c2ccc(NC(=S)NC(=O)/C=C/c3ccc(F)cc3)cc2)s1 [TG6-129]
remaining activity at […] ([1]; 1 h, TG6-129 log([M]) -4.70, EP4-S319A, read-out: % cAMP activity (normalized to WT)): 46.6% | remaining activity at 0.006457 µM ([1]; 1 h, TG6-129 log([M]) -8.19, EP4-S319A, read-out: % cAMP activity (normalized to WT)): 114% | remaining activity at 0.001288 µM ([1]; 1 h, TG6-129 log([M]) -8.89, EP4-S319A, read-out: % cAMP activity (normalized to WT)): 108% | TG6-129 cAMP activity (∆pIC50 from EP4 WT), Mean ([1]; S319A, Mean): -0.460 | TG6-129 cAMP activity (∆pIC50 from EP4 WT) ([1]; S319A, single experiments 1st-3rd): -0.435 and -0.502 and -0.443 | ΔpIC50 [1, 4]: -0.46 ± 0.02 | IC50 [2]: 6.76 µM | remaining activity at 100 µM ([2]; 1 h, TG6-129 log([M]) -4.00, EP4-V320A, read-out: % cAMP activity (normalized to WT)): 8.24% | remaining activity at 20 µM ([2]; 1 h, TG6-129 log([M]) -4.70, EP4-V320A, read-out: % cAMP activity (normalized to WT)): 16% | remaining activity at […] ([2]; 1 h, TG6-129 log([M]) -5.40, EP4-V320A, read-out: % cAMP activity (normalized to WT)): 41.7% | remaining activity at […] ([2]; 1 h, TG6-129 log([M]) -6.10, EP4-V320A, read-out: % cAMP activity (normalized to WT)): 57.4% | remaining activity at […] ([2]; 1 h, TG6-129 log([M]) -6.80, EP4-V320A, read-out: % cAMP activity (normalized to WT)): 59.5% | remaining activity at 0.0324 µM ([2]; 1 h, TG6-129 log([M]) -7.49, EP4-V320A, read-out: % cAMP activity (normalized to WT)): 49.7% | remaining activity at 0.00646 µM ([2]; 1 h, TG6-129 log([M]) -8.19, EP4-V320A, read-out: % cAMP activity (normalized to WT)): 54.3% | remaining activity at 0.00129 µM ([2]; 1 h, TG6-129 log([M]) -8.89, EP4-V320A, read-out: % cAMP activity (normalized to WT)): 60.2% | TG6-129 cAMP activity (∆pIC50 from EP4 WT), Mean ([2]; V320A, Mean): -0.014 | TG6-129 cAMP activity (∆pIC50 from EP4 WT) ([2]; V320A, single experiments 1st-3rd): 0.016 and -0.105 and 0.048 | ΔpIC50 [2, 4]: -0.01 ± 0.04 | IC50 [3]: 18.6 µM | remaining activity at 100 µM ([3]; 1 h, TG6-129 log([M]) -4.00, EP4-V72A, read-out: % cAMP activity (normalized to WT)): 9.67% | remaining activity at […] ([3]; 1 h, TG6-129 log([M]) -4.70, EP4-V72A, read-out: % cAMP activity (normalized to WT)): 26.1% | remaining activity at […] ([3]; 1 h, TG6-129 log([M]) -5.40, EP4-V72A, read-out: % cAMP activity (normalized to WT)): 41.3% | remaining activity at […] ([3]; 1 h, TG6-129 log([M]) -6.10, EP4-V72A, read-out: % cAMP activity (normalized to WT)): 40.6% | remaining activity at 0.1585 µM ([3]; 1 h, TG6-129 log([M]) -6.80, EP4-V72A, read-out: % cAMP activity (normalized to WT)): 44.9% | remaining activity at 0.03236 µM ([3]; 1 h, TG6-129 log([M]) -7.49, EP4-V72A, read-out: % cAMP activity (normalized to WT)): 51.4% | remaining activity at 0.006457 µM ([3]; 1 h, TG6-129 log([M]) -8.19, EP4-V72A, read-out: % cAMP activity (normalized to WT)): 46.4% | remaining activity at 0.001288 µM ([3]; 1 h, TG6-129 log([M]) -8.89, EP4-V72A, read-out: % cAMP activity (normalized to WT)): 40.4% | TG6-129 cAMP activity (∆pIC50 from EP4 WT), Mean ([3]; V72A, Mean): -0.480 | TG6-129 cAMP activity (∆pIC50 from EP4 WT) ([3]; V72A, single experiments 1st-3rd): -0.475 and -0.451 and -0.514 | ΔpIC50 [3, 4]: -0.48 ± 0.02 | IC50 (EP2 WT): 0.0813 µM | remaining activity at 0.1 µM (EP2 WT; 1 h, TG6-129 log([M]) -7, read-out: % cAMP activity (normalized to WT)): 40.1% | remaining activity at 0.01 µM (EP2 WT; 1 h, TG6-129 log([M]) -8, read-out: % cAMP activity (normalized to WT)): 94.7% | remaining activity at 0.001 µM (EP2 WT; 1 h, TG6-129 log([M]) -9, read-out: % cAMP activity (normalized to WT)): 104% | remaining activity at 0.0001 µM (EP2 WT; 1 h, TG6-129 log([M]) -10, read-out: % cAMP activity (normalized to WT)): 94.6% | remaining activity at 10 pM (EP2 WT; 1 h, TG6-129 log([M]) -11, read-out: % cAMP activity (normalized to WT)): 102% | remaining activity at 1 pM (EP2 WT; 1 h, TG6-129 log([M]) -12, read-out: % cAMP activity (normalized to WT)): 94.1% | remaining activity at 1 µM (EP2 WT; 1 h, ligand log([M]) -6, single experiments 1st-3rd, Fig. S7B, read-out: % cAMP activity (normalized to WT)): 3.11% | remaining activity at 0.1 µM (EP2 WT; 1 h, ligand log([M]) -7, single experiments 1st-3rd, Fig. S7B, read-out: % cAMP activity (normalized to WT)): 42.8% | remaining activity at 0.01 µM (EP2 WT; 1 h, ligand log([M]) -8, single experiments 1st-3rd, Fig. S7B, read-out: % cAMP activity (normalized to WT)): 80.3% | remaining activity at 0.001 µM (EP2 WT; 1 h, ligand log([M]) -9, single experiments 1st-3rd, Fig. S7B, read-out: % cAMP activity (normalized to WT)): 95.4% | remaining activity at 0.0001 µM (EP2 WT; 1 h, ligand log([M]) -10, single experiments 1st-3rd, Fig. S7B, read-out: % cAMP activity (normalized to WT)): 93.9% | remaining activity at 10 pM (EP2 WT; 1 h, ligand log([M]) -11, single experiments 1st-3rd, Fig. S7B, read-out: % cAMP activity (normalized to WT)): 103% | remaining activity at 1 pM (EP2 WT; 1 h, ligand log([M]) -12, single experiments 1st-3rd, Fig. S7B, read-out: % cAMP activity (normalized to WT)): 110% | remaining activity at 0.1 µM (EP2 WT; 1 h, read-out: % cAMP activity on EP2 (normalized to PF-04418948), ligand log([M]) -7, single experiments 1st-3rd, Fig. S1A): 46% | remaining activity at 0.01 µM (EP2 WT; 1 h, read-out: % cAMP activity on EP2 (normalized to PF-04418948), ligand log([M]) -8, single experiments 1st-3rd, Fig. S1A): 84.5% | remaining activity at 0.001 µM (EP2 WT; 1 h, read-out: % cAMP activity on EP2 (normalized to PF-04418948), ligand log([M]) -9, single experiments 1st-3rd, Fig. S1A): 100% | remaining activity at 0.0001 µM (EP2 WT; 1 h, read-out: % cAMP activity on EP2 (normalized to PF-04418948), ligand log([M]) -10, single experiments 1st-3rd, Fig. S1A): 98.6% | remaining activity at 10 pM (EP2 WT; 1 h, read-out: % cAMP activity on EP2 (normalized to PF-04418948), ligand log([M]) -11, single experiments 1st-3rd, Fig. S1A): 108% | remaining activity at 1 pM (EP2 WT; 1 h, read-out: % cAMP activity on EP2 (normalized to PF-04418948), ligand log([M]) -12, single experiments 1st-3rd, Fig. S1A): 115% | cAMP activity (∆pIC50 from EP2 WT) (EP2 WT; TG6-129, WT, single experiments 1st-3rd): 0.065 and 0.064 and -0.014 | antagonism profile EP2 versus EP4 (in words) (EP2 WT; cAMP accumulation assay upon PGE2 stimulation, Appendix Fig. S1A): dual antagonist that preferentially antagonizes EP2; also recorded: preferential potency toward EP2 | cAMP activity (∆pIC50 from EP2 WT) (EP2 WT; single experiments 1st-3rd, Appendix Fig. S7A): 0.111 and -0.076 and -0.052
